Measurements as given in patent US20090246186A1, “AGENT FOR IMPROVING NERVOUS SYSTEM CELL FUNCTIONS” (KANEKA CORPORATION, priority 2006, published 2009).

How the values were obtained:
[1] = system: SAMP8 mice; experiment: Step-through passive avoidance learning experiment; assay type: in vivo, mouse
Source text: Aging promoted mouse (SAMP8,3-week-old, male, each group N=8−10) models were divided into a group given a feed (CE-2, manufactured by (LEA Japan, Inc.) containing 0.5% of reduced coenzyme Q10 (containing about 1% oxidized coenzyme Q10) obtained in Production Example 1 and a group given a basic feed (CE-2, manufactured by CLEA Japan, Inc.) alone as a control group. The both groups were allowed a free access to the feed. The dose of reduced coenzyme Q10 obtained from the ingested amount of the feed and the body weight of the animal generally corresponded to 300-500 mg/kg/day.
The effect of reduced coenzyme Q for the learning and memory function was examined by a step-through passive avoidance learning experiment. When SAMP8 mice were placed in a light compartment of an apparatus consisting of two light and dark compartments, they enter the dark compartment since mouse prefers darkness. The mice were taught that the dark compartment was dangerous by applying an electric current (0.5 mA) for 3 sec from the floor of the dark compartment (acquisition trial). […]
To be specific, the mice were placed in the same apparatus again, and the time of stay in the light compartment was measured, based on which the learning, memory function of the mice was compared between with and without ingestion of reduced coenzyme Q in the present invention. […]

[2] = system: PC12 cells; experiment: Nerve cell protection on hydrogen peroxide-induced cell death (intracellular ATP amount); assay type: cell-based; details: 25, 50, 100 μg/ml for 24 hr, then 0.06 mM hydrogen peroxide; compared with oxidized coenzyme Q10
Description: As one of the causes of the nerve cell death, active oxygen species produced for various reasons is known. Therefore, a cell death protecting action of reduced coenzyme Q10 when PC12 cells are exposed to hydrogen peroxide was examined. PC12 cells were cultured in Dulbecco's Modified Eagle Medium containing 200 units of penicillin, 0.1 μg/ml streptomycin, and 10% fetal bovine serum under 37° C., 5% CO2 conditions. The cells were plated to a 96 well microplate at 1×10^4 cells/well, and cultured under the conditions of 37° C., 5% CO2. After 24 hr, the medium was removed and substituted with Dulbecco's Modified Eagle Medium containing 200 units of penicillin, […] streptomycin and 0.5% fetal bovine serum and supplemented with reduced coenzyme Q10 and oxidized coenzyme Q10 (25, 50, 100 μg/ml). After 24 hr, the medium was removed, and the cells were exposed to hydrogen peroxide so that the final concentration in the same medium would be 0.06 mM 24 hr later, and cultured under the conditions of 37° C., 5% CO2 for 15 min. The cells were washed 3 times with PBS, and the intracellular ATP amount was measured using an ATP quantify kit (Perkin Elmer) and compared.

[3] = system: normal rat or spontaneously diabetic rat; details: cited from earlier work
[4] = system: rat; details: 1.2 g/kg/day for 52 consecutive weeks; cited from earlier work
[5] = system: model mouse with Parkinson's disease; details: cited from earlier work

Q: With COc1c(O)c(C)c(C/C=C(\C)CC/C=C(\C)CC/C=C(\C)CC/C=C(\C)CC/C=C(\C)CC/C=C(\C)CC/C=C(\C)CC/C=C(\C)CC/C=C(\C)CCC=C(C)C)c(O)c1OC [reduced coenzyme Q10] as the compound, how does the “response latency time (passive avoidance test)” value ([1]; feed containing 0.5% reduced coenzyme Q10 (300-500 mg/kg/day), after 8 weeks (11-week-old), vs control group) read?
A: the number of mouse that showed a prolonged response latency time increased

Q: And the “learning and memory disorder-improving effect” value ([1]; short time administration, feed containing 0.5% reduced coenzyme Q10, 8 weeks)?
A: a learning and memory disorder-improving effect was observed

Q: And the “cell death of PC12 cells induced by hydrogen peroxide” value [2]?
A: significantly prevented

Q: And the “tissue degeneration caused by oxidative stress in the pancreas” value ([3]; diabetic rat)?
A: suppress

Q: And the “amount of 8-hydroxy deoxyguanosine (oxidization marker) in urine” value ([3]; normal rat or spontaneously diabetic rat)?
A: decrease

Q: Which toxicity [4] does the source give for COC1=C(OC)C(=O)C(C/C=C(\C)CC/C=C(\C)CC/C=C(\C)CC/C=C(\C)CC/C=C(\C)CC/C=C(\C)CC/C=C(\C)CC/C=C(\C)CC/C=C(\C)CCC=C(C)C)=C(C)C1=O [Oxidized coenzyme Q10, oxidized coenzyme Q10] here?
A: no toxicity was observed

Q: With oxidized coenzyme Q as the compound, how does the symptom improving effect [5] read?
A: shows a symptom improving effect
